Source: the supplement of paper PMC11208160

Experiment: recombinant barcode read abundance after kanamycin selection (control-corrected) (log10(CPM+1)); higher = more efficient recombination; sequences stand for … in AGTGCAGAGAAAATCGGCCAGTTTTCTCTGCCTGCAGTCCGCATGCCGT…AGATTTATGCAGCGGACTGCCTTTCTCCCAAAGTGATAAACCGGACAGTATCATGGACCGGTTTTCCCGGTAATCCGTATTTGCAAGGTTGGTTTCACT; site = the 11-nt target
Experimental: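 Pooled E. coli target-specificity screen for the IS621 bridge recombinase. Each library plasmid pairs an 11-nt target (CT core) with a bridge RNA whose target-binding loop (9-nt LTG + 4-nt RTG) is reprogrammed; the rest of the 177-nt WT IS621 bridge RNA scaffold is fixed. The plasmid is co-electroporated with a WT donor plasmid; recombinase is induced with 0.1 mM IPTG and recombinants are selected on kanamycin. Recombinant barcodes are sequenced, converted to CPM, averaged over two biological replicates and corrected by the unselected control CPM. Molecule = full bridge RNA written as DNA: LTG = specificity nt 1-9, RTG = reverse complement of specificity nt 8-11, in the WT scaffold.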
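Also: IS621 recombinase and bridge RNA in Escherichia coli cells.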

Going from “TACTATACTTGGGTTCTAACCTGTTGCCT (site TACTATACTAG)” to “TTCCCCACTTGGGTTCTAACCTGTTGCCT (site TTCCCCACTAG)”, the “recombinant barcode read abundance (log10)” value rises from 0.181 to 1.11.

“ACTTAGACTTGGGTTCTAACCTGTTGCCG (site ACTTAGACTGG)” and “TGGGACTCTTGGGTTCTAACCTGTTGCCA (site TCGGACACTTG)” are within 0.2 log units of each other in “recombinant barcode read abundance (log10)” value: 0.159 for the first, 0.328 for the second.

Going from “ACATGGACTTGGGTTCTAACCTGTTGCAT (site ACATGGACTAT)” to “GACTCTCCTTGGGTTCTAACCTGTTGCCT (site GACTCTCCTAC)”, the “recombinant barcode read abundance (log10)” value falls from 2.72 to 0.0378.

“CTAGACACTTGGGTTCTAACCTGTTGCGG (site CTGGTCACTCC)” and “GGCTCCTCTTGGGTTCTAACCTGTTGCAT (site GGATCCTCTAT)” are within 0.2 log units of each other in “recombinant barcode read abundance (log10)” value: 0.0881 for the first, 0.0148 for the second.

First: CTAAAGTCTTGGGTTCTAACCTGTTGCCA (site GTAAAGTCTTG)
Second: CCGGTCCCTTGGGTTCTAACCTGTTGCAG (site GGACAGTCTAC)
The “recombinant barcode read abundance (log10)” value of the first is lower: 0.0268 for the first, 0.307 for the second.

First: CAGGCGCCTTGGGTTCTAACCTGTTGCCT (site CAGGCGGCTAG)
Second: AAGGTCCCTTGGGTTCTAACCTGTTGCCA (site AAGGTCCCTTG)
The “recombinant barcode read abundance (log10)” value of the first is lower: 0.178 for the first, 1.85 for the second.

“TAGTACCCTTGGGTTCTAACCTGTTGCAA (site TAGTACCCTGT)” and “GGTGCTCCTTGGGTTCTAACCTGTTGCAT (site GGTGCTCCTCT)” are within 0.2 log units of each other in “recombinant barcode read abundance (log10)” value: 0.0816 for the first, 0.017 for the second.

Compared with “CTAGTAGCTTGGGTTCTAACCTGTTGCTC (site GTAGCAGCTGA)”, “GTCACCTCTTGGGTTCTAACCTGTTGCCT (site GTCGCCTCTAG)” is lower in “recombinant barcode read abundance (log10)” value: 0.331 for the first, 0.0645 for the second.

Going from “GTCGTACCTTGGGTTCTAACCTGTTGCCT (site GTCGTACCTAG)” to “CTCCGATCTTGGGTTCTAACCTGTTGCGG (site CTCCCATCTAC)”, the “recombinant barcode read abundance (log10)” value falls from 0.704 to 0.

“CTTCGAGCTTGGGTTCTAACCTGTTGCCG (site CTTCGAGCTCC)” and “CTCGGTGCTTGGGTTCTAACCTGTTGCCT (site CACGGTCCTAG)” are within 0.2 log units of each other in “recombinant barcode read abundance (log10)” value: 0.0907 for the first, 0.118 for the second.

Compared with “CAAACTCCTTGGGTTCTAACCTGTTGCCT (site CAAACTCCTAG)”, “AAGTGCTCTTGGGTTCTAACCTGTTGCCG (site AAGTGCTCTCG)” is higher in “recombinant barcode read abundance (log10)” value: 0.238 for the first, 1.89 for the second.

Going from “CTATGCCCTTGGGTTCTAACCTGTTGCTA (site CTATGCCCTTC)” to “GGCTCCTCTTGGGTTCTAACCTGTTGCCA (site GGCTCCTCTTG)”, the “recombinant barcode read abundance (log10)” value rises from 0.179 to 0.674.

Compared with “ACGCACTCTTGGGTTCTAACCTGTTGCCG (site GATGGTACTAT)”, “AATCGGCCTTGGGTTCTAACCTGTTGCGT (site AATAGGCCTAC)” is higher in “recombinant barcode read abundance (log10)” value: 0.0148 for the first, 0.375 for the second.

“TAGTACCCTTGGGTTCTAACCTGTTGCAA (site TAGTACCCTAT)” and “CCGCTTACTTGGGTTCTAACCTGTTGCCT (site CCGCTTACTAG)” are within 0.2 log units of each other in “recombinant barcode read abundance (log10)” value: 0.0814 for the first, 0.0232 for the second.

Going from “TAACCATCTTGGGTTCTAACCTGTTGCCT (site TAGCCATCTAG)” to “CTCGGTACTTGGGTTCTAACCTGTTGCCA (site CTCGGTACTTG)”, the “recombinant barcode read abundance (log10)” value rises from 0.0156 to 0.489.

Going from “GACGGATCTTGGGTTCTAACCTGTTGCTT (site GACGGATCTAA)” to “ATTGGCTCTTGGGTTCTAACCTGTTGCCT (site ATTGGTTCTAG)”, the “recombinant barcode read abundance (log10)” value falls from 0.557 to 0.0735.

First: CCTGGGACTTGGGTTCTAACCTGTTGCGC (site CCTGGGACTAC)
Second: GTGCACACTTGGGTTCTAACCTGTTGCCA (site GTGCAAACTAG)
The “recombinant barcode read abundance (log10)” value of the first is higher: 0.684 for the first, 0.0839 for the second.

“TACTGAGCTTGGGTTCTAACCTGTTGCCT (site TACTGAGCTAG)” and “GTGAGTGCTTGGGTTCTAACCTGTTGCCA (site ATAAGTGCTTG)” are within 0.2 log units of each other in “recombinant barcode read abundance (log10)” value: 0.52 for the first, 0.475 for the second.

Compared with “TAGTACTCTTGGGTTCTAACCTGTTGCTG (site TAGTACTCTGA)”, “GTGCGGACTTGGGTTCTAACCTGTTGCGT (site GTGAGGACTAC)” is higher in “recombinant barcode read abundance (log10)” value: 0.053 for the first, 0.676 for the second.

“ATCGGACCTTGGGTTCTAACCTGTTGCCT (site ATCGGAGCTAG)” and “GTGCCCGCTTGGGTTCTAACCTGTTGCAG (site AAATGACCTAC)” are within 0.2 log units of each other in “recombinant barcode read abundance (log10)” value: 0.206 for the first, 0.0527 for the second.

Going from “ATTGGCTCTTGGGTTCTAACCTGTTGCCT (site ATTGGGTCTAG)” to “GAGTATTCTTGGGTTCTAACCTGTTGCCT (site GAGTATTCTAG)”, the “recombinant barcode read abundance (log10)” value rises from 0.0639 to 1.16.

First: CGTTTCCCTTGGGTTCTAACCTGTTGCGT (site CGTTTCCCTAC)
Second: AATCGGCCTTGGGTTCTAACCTGTTGCGT (site AATTGGCCTAC)
The “recombinant barcode read abundance (log10)” value of the first is higher: 1.04 for the first, 0.175 for the second.

Compared with “GAGAGCACTTGGGTTCTAACCTGTTGCCT (site CAGAGCACTAG)”, “CCTACGCCTTGGGTTCTAACCTGTTGCCA (site CCTACGCCTTG)” is higher in “recombinant barcode read abundance (log10)” value: 0.603 for the first, 0.842 for the second.

“CTCTACACTTGGGTTCTAACCTGTTGCCA (site CTCTATACTTG)” and “AAAGCTACTTGGGTTCTAACCTGTTGCTA (site TGGTAGTCTAC)” are within 0.2 log units of each other in “recombinant barcode read abundance (log10)” value: 0.0697 for the first, 0.0812 for the second.

First: TGAACGTCTTGGGTTCTAACCTGTTGCCT (site TGAATGTCTAG)
Second: GGTCAACCTTGGGTTCTAACCTGTTGCCT (site GGTCAACCTAG)
The “recombinant barcode read abundance (log10)” value of the first is lower: 0.378 for the first, 1.14 for the second.

“TGGGGTCCTTGGGTTCTAACCTGTTGCCT (site TGGCGTCCTAG)” and “GCGAACACTTGGGTTCTAACCTGTTGCTT (site GCGAAGTCTAA)” are within 0.2 log units of each other in “recombinant barcode read abundance (log10)” value: 0.0786 for the first, 0.194 for the second.

First: GTTCGAGCTTGGGTTCTAACCTGTTGCGG (site ATTCGAGCTCC)
Second: CGAGAACCTTGGGTTCTAACCTGTTGCCT (site GGAGAACCTAG)
The “recombinant barcode read abundance (log10)” value of the first is higher: 1.74 for the first, 0.0316 for the second.

“TGTAGAGCTTGGGTTCTAACCTGTTGCAG (site TGTTGAGCTCT)” and “TAGTTTCCTTGGGTTCTAACCTGTTGCGT (site TAGTCTCCTAC)” are within 0.2 log units of each other in “recombinant barcode read abundance (log10)” value: 0.0298 for the first, 0.0219 for the second.

Compared with “CGGCGTCCTTGGGTTCTAACCTGTTGCTA (site CGGGGTCCTTA)”, “CTAAAGTCTTGGGTTCTAACCTGTTGCCA (site CTAAAGTCTTG)” is higher in “recombinant barcode read abundance (log10)” value: 0.113 for the first, 0.399 for the second.

“GGTAAGACTTGGGTTCTAACCTGTTGCCT (site GGTAAGACTAG)” and “GAACTGCCTTGGGTTCTAACCTGTTGCTT (site GAACTGCCTAA)” are within 0.2 log units of each other in “recombinant barcode read abundance (log10)” value: 1.47 for the first, 1.35 for the second.

“CAACCACCTTGGGTTCTAACCTGTTGCTT (site CAATCACCTAA)” and “AACGCTCCTTGGGTTCTAACCTGTTGCCT (site AACGCTCCTAG)” are within 0.2 log units of each other in “recombinant barcode read abundance (log10)” value: 0.159 for the first, 0.102 for the second.

Going from “GAGTTCCCTTGGGTTCTAACCTGTTGCGT (site GAGTTCCCTAC)” to “CACCGAGCTTGGGTTCTAACCTGTTGCCG (site CACCGAGCTCG)”, the “recombinant barcode read abundance (log10)” value falls from 2.66 to 0.577.

First: TCTTAGGCTTGGGTTCTAACCTGTTGCGT (site TCTTAGGCTAC)
Second: AGCCCTCCTTGGGTTCTAACCTGTTGCTC (site AGCCCTCCTGA)
The “recombinant barcode read abundance (log10)” value of the first is higher: 1.63 for the first, 1.19 for the second.

Going from “ACTTTACCTTGGGTTCTAACCTGTTGCCT (site CCTTTACCTAG)” to “TTGGGTTCTTGGGTTCTAACCTGTTGCCT (site TTGGGTTCTAG)”, the “recombinant barcode read abundance (log10)” value rises from 0.324 to 0.767.

“GCTTCTTCTTGGGTTCTAACCTGTTGCCT (site GGTTCTTCTAG)” and “AGCATTCCTTGGGTTCTAACCTGTTGCCT (site AGCAGTGCTAG)” are within 0.2 log units of each other in “recombinant barcode read abundance (log10)” value: 0.0632 for the first, 0.144 for the second.

Compared with “GAGAGGTCTTGGGTTCTAACCTGTTGCAT (site GAGAGGTCTAT)”, “GTGTTGCCTTGGGTTCTAACCTGTTGCCT (site GCGTTGCCTAG)” is lower in “recombinant barcode read abundance (log10)” value: 1.82 for the first, 0.392 for the second.

First: ACACGACCTTGGGTTCTAACCTGTTGCGG (site ACACGACCTCC)
Second: TTCCCGCCTTGGGTTCTAACCTGTTGCCT (site TTCCCGCCTAG)
The “recombinant barcode read abundance (log10)” value of the first is higher: 2.48 for the first, 0.543 for the second.

“CGCGCTCCTTGGGTTCTAACCTGTTGCCT (site CGCGTTCCTAG)” and “ATATCAACTTGGGTTCTAACCTGTTGCCG (site TCTGTGTCTTA)” are within 0.2 log units of each other in “recombinant barcode read abundance (log10)” value: 0.0658 for the first, 0.0298 for the second.

First: AGGGTGCCTTGGGTTCTAACCTGTTGCTA (site AGGGTGTCTCA)
Second: GGATACACTTGGGTTCTAACCTGTTGCCG (site GGATACACTCG)
The “recombinant barcode read abundance (log10)” value of the first is lower: 0.106 for the first, 1.66 for the second.

First: GTGAGGTCTTGGGTTCTAACCTGTTGCTT (site GTGAGGTCTAG)
Second: TCCACACCTTGGGTTCTAACCTGTTGCCT (site TCCACACCTAG)
The “recombinant barcode read abundance (log10)” value of the first is higher: 1.46 for the first, 0.63 for the second.

“TGTCAGGCTTGGGTTCTAACCTGTTGCCT (site TGCTAGGCTAG)” and “TATCCATCTTGGGTTCTAACCTGTTGCCT (site TAGCCATCTAG)” are within 0.2 log units of each other in “recombinant barcode read abundance (log10)” value: 0.187 for the first, 0.0545 for the second.
